Where a SMILES comes first, the peptide text is derived from it.
Tests used:
[1] = target: T1, Peptidyl-prolyl cis-trans isomerase A (Homo sapiens, UniProt P62937); assay: Inhibition of PPIase activity of Cyclophilin A by Spectrophotometry
[2] = target: T1, Peptidyl-prolyl cis-trans isomerase A; assay: Binding affinity to Cyclophilin A
Target sequence in this assay (P62937 whole entry): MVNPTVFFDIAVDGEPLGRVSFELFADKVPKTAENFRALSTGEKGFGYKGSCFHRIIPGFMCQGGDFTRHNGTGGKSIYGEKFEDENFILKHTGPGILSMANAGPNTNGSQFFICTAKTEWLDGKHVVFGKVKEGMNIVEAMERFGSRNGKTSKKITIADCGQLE

[3] = test system: Human immunodeficiency virus 1; assay: Antiviral activity against HIV1 3B infected in human MT2 cells assessed as inhibition of viral replication at 1 mM after 48 hrs by flow cytometry; type: functional; details: Human immunodeficiency virus 1, 3B, MT2, 48 h
SK-HEP1 = assay: Cytotoxicity against human SKHEP1 cells upto 100 uM after 48 hrs by MTT assay; type: cell-based; details: sk-hep1, 48 h

SMILES | IC50 [1] | Kd [2] | inhibition [1] | IC50 ([1]; read-out: IC50) [nM] | Kd ([2]; read-out: Kd) [nM] | inhibition at 1000 µM [3] [%] | Activity (SK-HEP1)
N[C@@H](Cc1ccc(O)cc1)C(=O)NCC(=O)N1CCC[C@H]1C(=O)O (H-Tyr-Gly-Pro-OH) | Not Active | Not Active | – | – | – | – | –
N[C@@H](Cc1c[nH]c2ccccc12)C(=O)NCC(=O)N1CCC[C@H]1C(=O)O (H-Trp-Gly-Pro-OH) | – | – | Dose-dependent effect | 33.1 | 3410 | 75.5 | Non-toxic
C[C@H](NC(=O)[C@@H](N)Cc1c[nH]c2ccccc12)C(=O)NCC(=O)N1CCC[C@H]1C(=O)O (H-WAGP-OH) | Not Active | Not Active | – | – | – | – | –

Source: ChEMBL document CHEMBL1770078, “Discovery of a potent peptidic cyclophilin A inhibitor Trp-Gly-Pro” (Eur J Med Chem, 2011)
